According to US10513534B2, “2′-chloro nucleoside analogs for HCV infection” (priority 2012, dated 2019):
pEC50: −log10 of the molar value. Where two headings read alike, the source gives them in different places.

Experiments:
[1] = system: Zluc cells; assay: Cytotoxicity evaluation, CellTiter-Blue Cell Viability Assay; conditions: Zluc cells, CellTiter-Blue
[2] = Stability in intestinal microsomes; type: in vitro ADME; conditions: human intestinal microsomes 1.0 mg/mL, 10 μM, NADPH, 60 min
Experimental: (§1) Stability of test compounds were determined in human liver and intestinal microsomes in duplicate for each matrix. Pooled liver and intestinal microsomal proteins (1.0 mg/mL), suspended in incubation buffer (100 mM potassium phosphate, pH 7.4, 5 mM MgCl2, and 0.1 mM EDTA), were preincubated for 5 min at 37° C. with 10 μM of a test compound from a 10 mM stock solution in DMSO (final DMSO concentration was 0.1%); the reaction was initiated by the addition of NADPH (3 mM final concentration). At specific times (0 and 60 min), 0.1 mL samples were taken and the reaction terminated by the addition of 4 volumes of stop solution (acetonitrile with 500 ng/mL carbutamide as an internal standard). The samples were vortexed for 30 sec and then centrifuged at 16000×g for 10 min. 100 μL of supernatants were transferred to 96 deep-well plates preloaded with 100 μL distilled water and analyzed after mixing by LC-MS/MS. The MS peak area ratio of the test compound versus the internal standard was calculated and percent unchanged test compound over 60 minutes was calculated using this ratio.

[3] = Liver triphosphate pharmacokinetics after single oral dose in cynomolgus monkeys; type: in vivo
Experimental: (§2) For each compound, a single oral dose at 10 mg/kg in PEG 200 (dose volume 3 mL/kg) was administered to cynomolgus monkeys. Untreated animals were used for the collection of control liver. Plasma samples were collected at 0.5, 1, 2, 4, 6, 8, 12 and 24 hours for compound 37, diastereomer 2.
Liver samples were analyzed for the relevant nucleoside triphosphate by LC-MS/MS. […] Appropriate internal standard solution was added to the homogenate followed by neutralization with 20% ammonium hydroxide solution and addition of 500 μL 1% formic acid. The tissue samples were extracted by weak anion exchange solid phase extraction (SPE). Post extraction, the eluates were evaporated under nitrogen, followed by reconstitution before injection onto the LC-MS/MS system.

[4] = target: HCV genotype 1b replicon; assay: HCV replicon assay (Zluc luciferase); type: cell-based; conditions: Zluc cells, 72 hours; read-out: HCV Replicon EC50
Summary of the method: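 Zluc Huh-7 cells with HCV genotype 1b replicon and luciferase reporter treated with 5-fold dilutions (100 μM to 0.0000512 μM final) in duplicate, or at 1 and 10 μM. Luminescence read with ONE-glo; EC50 from dose-response fits, or % inhibition at the fixed concentrations.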

[5] = Plasma prodrug and nucleoside pharmacokinetics after single oral dose in cynomolgus monkeys; type: in vivo; conditions: single oral 10 mg/kg
Experimental: as §2
Plasma samples were analyzed for the prodrug and nucleoside by LC-MS/MS. For protein precipitation and extraction, each plasma sample (50 μL) was treated with 500 μL of 0.2% formic acid in acetonitrile and 20 μL of an appropriate internal standard working solution. After vortexing and centrifugation, 500 µL of the sample extracts were transferred to a new plate, dried under N2 at ˜28° C. and reconstituted with 75 μL of 0.2% FA in water. The extracts were chromatographed on an Aquasil C18 column using a gradient system of 0.2% formic acid in water and acetonitrile. The analytes were detected and quantified by tandem mass spectrometry in positive ion mode on an MDS Sciex API4000 equipped with a Turbo Ionspray® interface.

[6] = system: fresh mouse hepatocytes; assay: Release of active metabolite in fresh mouse hepatocytes; type: in vitro ADME; conditions: 10 μM
Experimental: Plates of fresh human and mouse hepatocytes were obtained on ice. The medium was removed and replaced with hepatocyte culture medium (William's E supplemented with penicillin-streptomycin, 1% L-glutamine, 1% insulin-transferrin-selenium and 0.1 μM Dexamethasone (Invitrogen) or with Invitro GRO HI medium complemented with Torpedo antibiotics (Celsis)). Cells were left overnight in an incubator at 37° C. to acclimatize to culture and the medium.
Hepatocyte incubations were conducted at a final volume of 0.5 mL hepatocyte culture medium/well (0.8 million cells/well for human and 0.5 million cells/well for mouse; 12 well plate no overlay, collagen coat). Culture medium from overnight incubation of cells was removed and replaced with fresh medium, pre-warmed to 37° C., containing 10 μM of test compound from a stock solution in DMSO (final DMSO concentration was 0.1%). At each specific time point, incubation medium was removed and cell monolayers were carefully washed two times with ice-cold PBS. Following the last wash, all PBS was carefully removed and 1.0 mL of extraction solution (ice-cold 70% methanol/30% water) added. Cells were scraped off and suspended in the extraction solution, transferred to 2 mL polypropylene microfuge tubes and intracellular contents extracted overnight at −20° C.
After the overnight treatment the cellular extracts were prepared by centrifugation at 16,000×g for 10 min to remove cellular debris. The remaining sample was then dried using a refrigerated centrivap concentrator. Dry extracts were reconstituted in 1000 μL of HPLC-grade water and centrifuged at 16,000×g for 10 min. Aliquots (100 μL each) of the supernatant were transferred into a 96 well plate and internal standard (4 ng/mL final concentration) was added as the internal standard (IS) for LC-MS/MS analysis.
The incubation time points were 6, 24 and 48 hours for human hepatocytes and 1, 4, 8, 12 and 24 hours for mouse hepatocytes.

[7] = Plasma nucleoside pharmacokinetics after single oral dose in CD-1 mice; type: in vivo; conditions: single oral dose 10 mg/kg in PEG 200;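 as to Ms Plasma nucleoside AUC: pmol·h/mL plasma normalized to a 1 µmol/kg dose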
Summary of the method: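 Mouse plasma was extracted by acetonitrile/0.2% formic acid protein precipitation using 2′-MeG-D3 or tiapride as internal standard. Nucleoside was quantified by positive-ion LC-MS/MS after C18 gradient separation. Calibration spanned 0.500 (LLOQ) to 200 ng/mL.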

[8] = Stability in liver microsomes; type: in vitro ADME; conditions: human liver microsomes 1.0 mg/mL, 10 μM, NADPH, 60 min
Experimental: as §1

[9] = system: Zluc cells; assay: Cytotoxicity in Zluc cells (CES1 study); type: cell-based
Experimental: (§3) For cytotoxicity evaluation, cells were treated with compounds as described herein, and cell viability was monitored using the CellTiter-Blue Cell Viability Assay (Promega) by adding 20 μL of the assay solution to each well. The plates were then incubated at 37° C./5% CO2 for at least 3 hours.

[10] = system: Zluc + CES1 cells; assay: Cytotoxicity in Zluc cells transfected with human CES1; type: cell-based; conditions: Zluc cells transiently transfected with human CES1
Experimental: (§4) An Huh-7-derived cell line (Zluc) that harbors an HCV genotype 1b replicon and a luciferase reporter gene was grown in Dulbecco's Modified Eagle Medium (DMEM) supplemented with 10% fetal bovine serum, 2 mM GlutaMAX, 1% MEM nonessential amino acids, 100 IU/mL penicillin, 100 μg/mL streptomycin, and 0.5 mg/mL Geneticin® (G418). Zluc cells were transiently transfected with human CES1 (GenBank Accession No. NM_001025194) by employing a lipid/histone based transfection procedure. Expression of CES1 was confirmed by Western blot, 24- and 48-hours after transfection, using anti-CES1 and anti-FLAG® tag antibodies.
as §3

[11] = system: HCV genotype 1b replicon; assay: HCV replicon assay in Zluc cells transiently transfected with human CES1; type: cell-based; conditions: for pEC50: Zluc cells transiently transfected with human CES1, 72 hours; for Effect of CES1 overexpression on replicon activity: cells overexpressing CES1 versus Zluc; for Fold Activity Increase EC50 (Zluc)/EC50 (Zluc + CES1): ratio of replicon EC50 without and with CES1 overexpression
Experimental: as §4
For dose response testing the cells were seeded in 96-well plates at 7.5×10^3 cells per well in a volume of […], and incubated at 37° C./5% CO2. Drug solutions were prepared freshly in the culture medium as 2× stocks. Ten additional 5-fold dilutions were prepared from these stocks in DMEM without G418. At least three hours after cells were seeded, drug treatment was initiated by adding 50 μL of drug dilutions to the plates in duplicate. Final concentrations of drug ranged from 100 μM to 0.0000512 μM. Cells were then incubated at 37° C./5% CO2. […] For this, media was removed from the plates via gentle tapping. Fifty microliters of ONE-glo luciferase assay reagent was added to each well. The plates were shaken gently for 3 min at room temperature and luminescence was measured on a Victor^3 V 1420 multilabel counter (Perkin Elmer) with a 1 second read time using a 700 nm cut-off filter. The EC50 values were calculated from dose response curves from the resulting best-fit equations determined by Microsoft Excel and XLfit 4.1 software.

[12] = system: HCV genotype 1b replicon; assay: HCV replicon assay in Zluc cells (CES1 study); type: cell-based; conditions: 72 hours
Experimental: as §4
For dose response testing the cells were seeded in 96-well plates at 7.5×10^3 cells per well in a volume of […], and incubated at 37° C./5% CO2. Drug solutions were prepared freshly in the culture medium as 2× stocks. Ten additional 5-fold dilutions were prepared from these stocks in DMEM without G418. At least three hours after cells were seeded, drug treatment was initiated by adding 50 μL of drug dilutions to the plates in duplicate. […] The plates were shaken gently for 3 min at room temperature and luminescence was measured on a Victor^3 V 1420 multilabel counter (Perkin Elmer) with a 1 second read time using a 700 nm cut-off filter. The EC50 values were calculated from dose response curves from the resulting best-fit equations determined by Microsoft Excel and XLfit 4.1 software.

[13] = Cytotoxicity in Zluc cells (CES1 study); type: cell-based; conditions: human
Experimental: as §3

[14] = Cytotoxicity in Zluc cells transfected with human CES1; type: cell-based; conditions: Zluc cells transiently transfected with human CES1
Experimental: as §4, §3

[15] = single oral 10 mg/kg, normalized to 1 μmol/kg dose

Question: Which CC50 [1] does the source give for `CC(C)OC(=O)[C@@H](C)NP(=O)(OC[C@H]1O[C@@H](n2ccc(=O)[nH]c2=O)[C@](C)(Cl)[C@@H]1O)Oc1ccccc1` (single isomer, unassigned; diastereomer 1) [Compound 40i Diastereomer 1] here?
Answer: > 50 µM

Question: What about the “HIM (1 hr) stability (percent remaining)” value [2] of the same compound?
Answer: +++ (50% < +++ ≤ 75%)

Question: What about the “Nucleoside triphosphate in Liver C6” value ([3]; 6 hours post dose, 10 mg/kg oral, normalized to 1 μmol/kg dose) of the same compound?
Answer: ++++ (100 < ++++)

Question: What about the “Nucleoside triphosphate in Liver Tmax” value ([3]; single oral 10 mg/kg) of the same compound?
Answer: 6 h

Question: What about the “Nucleoside triphosphate in Liver AUC0-24” value [3, 15] of the same compound?
Answer: ++++ (1500 < ++++)

Question: And the “Nucleoside triphosphate in Liver Cmax” value [3, 15]?
Answer: ++++ (100 < ++++)

Question: What about the pEC50 [4] of the same compound?
Answer: < 5.00

Question: What about the “Plasma nucleoside Tmax” value [5] of the same compound?
Answer: 6 h

Question: What about the “Plasma prodrug Tmax” value [5] of the same compound?
Answer: 2 h

Question: What about the “Plasma nucleoside AUC0-24” value ([5]; normalized to 1 μmol/kg dose) of the same compound?
Answer: ++ (150 < ++ ≤ 500)

Question: What about the “Plasma prodrug AUC0-24” value ([5]; normalized to 1 μmol/kg dose) of the same compound?
Answer: + (+ ≤ 150)

Question: And the Cmax ([5]; normalized to 1 μmol/kg dose, read-out: Plasma nucleoside Cmax)?
Answer: 15 to 50 nM

Question: What about the Cmax ([5]; normalized to 1 μmol/kg dose, read-out: Plasma prodrug Cmax) of the same compound?
Answer: ≤ 15 nM

Question: And the “MsH AUC” value [6]?
Answer: ++++ (1500 < ++++)

Question: What about the “MsH Cmax” value [6] of the same compound?
Answer: ++++ (100 < ++++)

Question: And the “Ms Plasma nucleoside AUC” value [7]?
Answer: +++ (500 < +++ ≤ 1500)

Question: And the “Ms Plasma nucleoside Cmax” value [7]?
Answer: +++ (50 < +++ ≤ 100)

Question: What about the “HLM (1 hr) stability (percent remaining)” value [8] of the same compound?
Answer: + (+ ≤ 25%)

Question: Which CC50 [9] does the source give for `CC(C)(CO)C(=O)SCCOP(=O)(NCc1ccccc1)OC[C@H]1O[C@@H](n2cnc3c(=O)[nH]c(N)nc32)[C@](C)(O)[C@@H]1O` (stereo partly drawn) [IDX-184] here?
Answer: > 50 µM

Question: And the CC50 [10]?
Answer: > 50 µM

Question: And the pEC50 [11]?
Answer: > 6.60

Question: What about the “Effect of CES1 overexpression on replicon activity” value [11] of the same compound?
Answer: not increased

Question: And the “Fold Activity Increase EC50 (Zluc)/EC50 (Zluc + CES1)” value [11]?
Answer: + (+ ≤ 1)

Question: What about the pEC50 [12] of the same compound?
Answer: > 6.60

Question: Which CC50 [13] does the source give for `CC(C)OC(=O)[C@H](C)N[P@](=O)(OC[C@H]1O[C@@H](n2ccc(=O)[nH]c2=O)[C@](C)(F)[C@@H]1O)Oc1ccccc1` [Sofosbuvir, sofosbuvir] here?
Answer: > 50 µM

Question: And the CC50 [14]?
Answer: > 50 µM

Question: What about the pEC50 ([11]; Hepatitis C virus) of the same compound?
Answer: 6.00 to 6.60

Question: What about the “Effect of CES1 overexpression on replicon activity” value [11] of the same compound?
Answer: not increased

Question: And the “Fold Activity Increase EC50 (Zluc)/EC50 (Zluc + CES1)” value [11]?
Answer: + (+ ≤ 1)

Question: And the pEC50 ([12]; Hepatitis C virus)?
Answer: 6.00 to 6.60
